Test results taken from patent US9751854B2 (Millennium Pharmaceuticals, Inc., priority 2014, dated 2017).

Each compound was assayed against human VPS34 (Homo sapiens (Human), UniProt Q8NEB9) (assay: Human VPS34 enzyme assay (Adapta TR-FRET ADP detection)). Conditions: not given.
Assay type: biochemical
Parameters: Percent Inhibition: dose or concentration left out as unconfirmed

Sequence of human VPS34 (Q8NEB9 whole entry): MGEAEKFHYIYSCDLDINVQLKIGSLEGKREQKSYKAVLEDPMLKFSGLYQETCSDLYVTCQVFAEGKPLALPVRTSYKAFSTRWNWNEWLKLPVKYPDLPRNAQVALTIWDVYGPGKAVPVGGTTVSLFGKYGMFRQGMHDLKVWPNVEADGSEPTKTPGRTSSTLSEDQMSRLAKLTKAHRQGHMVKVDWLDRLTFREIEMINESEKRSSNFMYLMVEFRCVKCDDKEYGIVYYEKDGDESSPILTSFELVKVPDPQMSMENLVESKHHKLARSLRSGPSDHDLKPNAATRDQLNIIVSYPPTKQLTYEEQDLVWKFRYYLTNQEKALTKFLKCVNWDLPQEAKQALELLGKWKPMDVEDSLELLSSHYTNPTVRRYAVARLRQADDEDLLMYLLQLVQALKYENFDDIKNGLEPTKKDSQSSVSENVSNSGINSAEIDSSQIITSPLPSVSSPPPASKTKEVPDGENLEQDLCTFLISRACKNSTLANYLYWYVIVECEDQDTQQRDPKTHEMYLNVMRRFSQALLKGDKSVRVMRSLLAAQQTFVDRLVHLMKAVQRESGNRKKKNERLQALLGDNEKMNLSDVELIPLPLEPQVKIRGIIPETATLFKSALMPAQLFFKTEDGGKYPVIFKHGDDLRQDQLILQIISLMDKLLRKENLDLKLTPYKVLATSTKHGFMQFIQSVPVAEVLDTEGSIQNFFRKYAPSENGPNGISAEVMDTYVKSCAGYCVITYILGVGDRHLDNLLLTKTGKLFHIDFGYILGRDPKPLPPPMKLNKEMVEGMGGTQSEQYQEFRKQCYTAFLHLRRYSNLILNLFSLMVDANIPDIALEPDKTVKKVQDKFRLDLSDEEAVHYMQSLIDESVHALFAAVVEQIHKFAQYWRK

Percent Inhibition [%]	SMILES
>99	CC(=O)Nc1cc(-c2cnc(N)c(S(=O)(=O)NCC(C)C)c2)ccn1 [Compound I-73, N-[6-amino-5-(isobutylsulfamoyl)-3,4′-bipyridin-2′-yl]acetamide]
93	Cc1nc(Nc2cc(-c3cnc(Cl)c(NS(=O)(=O)c4ccc(F)cc4F)c3C)ccn2)ccc1C#N [Compound I-238, N-[6-chloro-2′-[(5-cyano-6-methylpyridin-2-yl)amino]-4-methyl-3,4′-bipyridin-5-yl]-2,4-difluorobenzenesulfonamide]
83	Cc1ncc(-c2ccnc(NC(=O)C3CC3(F)F)c2)cc1NS(=O)(=O)N(C)C (single isomer, unassigned) [Compound I-498]

Same assay, conditions: IC50 range class

SMILES	IC50 [nM]
CC(=O)Nc1cc(-c2cnc(N)c(S(=O)(=O)NCC(C)C)c2)ccn1 [Compound I-73, N-[6-amino-5-(isobutylsulfamoyl)-3,4′-bipyridin-2′-yl]acetamide]	< 10
Cc1nc(Nc2cc(-c3cnc(Cl)c(NS(=O)(=O)c4ccc(F)cc4F)c3C)ccn2)ccc1C#N [Compound I-238, N-[6-chloro-2′-[(5-cyano-6-methylpyridin-2-yl)amino]-4-methyl-3,4′-bipyridin-5-yl]-2,4-difluorobenzenesulfonamide]	< 10
CC(=O)Nc1cc(-c2cnc(Cl)c(NS(=O)(=O)c3ccc(Br)cc3F)c2C)ccn1 [Compound I-444, N-(5-{[(4-bromo-2-fluorophenyl)sulfonyl]amino}-6-chloro-4-methyl-3,4′-bipyridin-2′-yl)acetamide]	10 to 50
CNc1ncc(-c2ccnc(NC(C)=O)c2)cc1C(=O)N(C)C [Compound I-22, 2′-acetamido-N,N-dimethyl-6-(methylamino)-3,4′-bipyridine-5-carboxamide]	10 to 50
CC(=O)Nc1cc(-c2cnc3[nH]cc(S(=O)(=O)N4CCCC4)c3c2)ccn1 [Compound I-158, N-{4-[3-(pyrrolidin-1-ylsulfonyl)-1H-pyrrolo[2,3-b]pyridin-5-yl]pyridin-2-yl}acetamide]	< 10
CC(=O)Nc1cc(-c2cnc(N)c(N3CCCNS3(=O)=O)c2)ccn1 [Compound I-490, N-[6-amino-5-(1,1-dioxido-1,2,6-thiadiazinan-2-yl)-3,4′-bipyridin-2′-yl]acetamide]	< 10
CCN(CC)C(=O)c1cc(-c2ccnc(Nc3ccnc(C)n3)c2)cnc1C [Compound I-302, N,N-diethyl-6-methyl-2′-[(2-methylpyrimidin-4-yl)amino]-3,4′-bipyridine-5-carboxamide]	10 to 50
CC(=O)Nc1cc(-c2cnc(N)c(C(=O)NC3CC3)c2)ccn1 [Compound I-169, 2′-acetamido-6-amino-N-cyclopropyl-3,4′-bipyridine-5-carboxamide]	10 to 50
CC(=O)Nc1cc(-c2cnc3c(c2)N(CC2CC2)S(=O)(=O)N3)ccn1 [Compound I-29, N-{4-[1-(cyclopropylmethyl)-2,2-dioxido-1,3-dihydro[1,2,5]thiadiazolo[3,4-b]pyridin-6-yl]pyridin-2-yl}acetamide]	10 to 50
CC(=O)Nc1cc(-c2cnc(C)c(NS(=O)(=O)c3cc(C)ccc3F)c2)ccn1 [Compound I-28, N-(5-{[(2-fluoro-5-methylphenyl)sulfonyl]amino}-6-methyl-3,4′-bipyridin-2′-yl)acetamide]	< 10
COC(=O)Nc1cc(-c2cnc(C)c(NS(=O)(=O)c3ccc(Cl)cc3F)c2)ccn1 [Compound I-417, methyl (5-{[(4-chloro-2-fluorophenyl)sulfonyl]amino}-6-methyl-3,4′-bipyridin-2′-yl)carbamate]	< 10
Cc1ncc(-c2ccnc(Nc3nc4ccccc4s3)c2)cc1NS(=O)(=O)c1ccc(F)cc1F [Compound I-271, N-[2′-(1,3-benzothiazol-2-ylamino)-6-methyl-3,4′-bipyridin-5-yl]-2,4-difluorobenzenesulfonamide]	10 to 50
Cc1ccc(Nc2cc(-c3cnc(C)c(NS(=O)(=O)c4ccc(F)cc4F)c3)ccn2)nn1 [Compound I-307, 2,4-difluoro-N-{6-methyl-2′-[(6-methylpyridazin-3-yl)amino]-3,4′-bipyridin-5-yl}benzenesulfonamide]	10 to 50
CC(=O)Nc1cc(-c2cnc(C)c(NS(=O)(=O)N3CCC3)c2)ccn1 [Compound I-257, N-{5-[(azetidin-1-ylsulfonyl)amino]-6-methyl-3,4′-bipyridin-2′-yl}acetamide]	10 to 50
CC(=O)Nc1cc(-c2cnc(N)c(S(=O)(=O)Cc3ccc4ccccc4c3)c2)ccn1 [Compound I-3, N-{6-amino-5-[(2-naphthylmethyl)sulfonyl]-3,4′-bipyridin-2′-yl}acetamide]	50 to 100
Cc1ncc(-c2ccnc(NC(=O)C3CC3)c2)cc1NS(=O)(=O)c1ccc(Cl)cc1F [Compound I-433, N-(5-{[(4-chloro-2-fluorophenyl)sulfonyl]amino}-6-methyl-3,4′-bipyridin-2′-yl)cyclopropanecarboxamide]	10 to 50
Cc1nccc(Nc2cc(-c3cncc(C(C)OCc4ccccn4)c3)ccn2)n1 (stereo not shown) [Compound I-349, N-(2-methylpyrimidin-4-yl)-5-[1-(pyridin-2-ylmethoxy)ethyl]-3,4′-bipyridin-2′-amine]	10 to 50
CC(=O)Nc1cc(-c2cnc(N)c(C(=O)N3CCN(C)CC3)c2)ccn1 [Compound I-79, N-[6-amino-5-[(4-methylpiperazin-1-yl)carbonyl]-3,4′-bipyridin-2′-yl}acetamide]	10 to 50

More lines, now with the values ahead:

IC50 [nM]	SMILES
10 to 50	Cc1ncc(-c2ccnc(NC(=O)C3CC3(F)F)c2)cc1NS(=O)(=O)N(C)C (single isomer, unassigned) [Compound I-498]
10 to 50	Cc1ncc(-c2ccnc(Nc3ccnc(C(F)(F)F)n3)c2)cc1NS(=O)(=O)c1ccc(F)cc1F [Compound I-237, 2,4-difluoro-N-(6-methyl-2′-{[2-(trifluoromethyl)pyrimidin-4-yl]amino}-3,4′-bipyridine-5-yl)benzenesulfonamide]
50 to 100	Cc1nccc(Nc2cc(-c3cnc(Cl)c(NC(=O)c4ccc(F)cc4F)c3C)ccn2)n1 [Compound I-295, N-{6-chloro-4-methyl-2′-[(2-methylpyrimidin-4-yl)amino]-3,4′-bipyridin-5-yl}-2,4-difluorobenzamide]
10 to 50	COc1ncc(-c2ccnc(NC(C)=O)c2)c(C)c1NS(=O)(=O)c1ccc(F)cc1F [Compound I-248, N-(5-{[(2,4-difluorophenyl)sulfonyl]amino}-6-methoxy-4-methyl-3,4′-bipyridin-2′-yl)acetamide]
10 to 50	CCc1c(-c2ccnc(NC(=O)C3CC3)c2)cnc(Cl)c1NS(=O)(=O)c1ccc(F)cc1F [Compound I-278, N-(6-chloro-5-{[(2,4-difluorophenyl)sulfonyl]amino}-4-ethyl-3,4′-bipyridin-2′-yl)cyclopropanecarboxamide]
< 10	CCOC(=O)Nc1cc(-c2cnc(C)c(NS(=O)(=O)c3ccc(F)cc3F)c2)ccn1 [Compound I-389, ethyl (5-{[(2,4-difluorophenyl)sulfonyl]amino}-6-methyl-3,4′-bipyridin-2′-yl)carbamate]
< 10	CC(=O)Nc1cc(-c2cnc(C)c(NS(=O)(=O)c3cccc(C(C)(C)C)c3)c2)ccn1 [Compound I-70]
10 to 50	CC(=O)Nc1cc(-c2cnc(N)c(C(=O)NCC3CC3)c2)ccn1 [Compound I-14, 2′-acetamido-6-amino-N-(cyclopropylmethyl)-3,4′-bipyridine-5-carboxamide]
10 to 50	CC(=O)Nc1cc(-c2cnc(N(C)C)c(NS(=O)(=O)c3ccc(F)cc3F)c2)ccn1 [Compound I-25, N-[5-{[(2,4-difluorophenyl)sulfonyl]amino}-6-(dimethylamino)-3,4′-bipyridin-2′-yl]acetamide]
> 100	CC(=O)Nc1cc(-c2cnc(Cl)c(C(=O)N3CCC3)c2)c(C)cn1 [Compound I-434, N-[5-(azetidin-1-ylcarbonyl)-6-chloro-5′-methyl-3,4′-bipyridin-2′-yl]acetamide]
